{"source": "patent US6262023A", "about": "“WD-40 derived peptides and uses thereof” (The Board of Trustees of the Leland Stanford Junior …, priority 1995, dated 2001)", "key": {"[1]": {"biological_target": "βPKC (Rattus norvegicus, UniProt P68403)", "sequence (P68403 whole entry)": "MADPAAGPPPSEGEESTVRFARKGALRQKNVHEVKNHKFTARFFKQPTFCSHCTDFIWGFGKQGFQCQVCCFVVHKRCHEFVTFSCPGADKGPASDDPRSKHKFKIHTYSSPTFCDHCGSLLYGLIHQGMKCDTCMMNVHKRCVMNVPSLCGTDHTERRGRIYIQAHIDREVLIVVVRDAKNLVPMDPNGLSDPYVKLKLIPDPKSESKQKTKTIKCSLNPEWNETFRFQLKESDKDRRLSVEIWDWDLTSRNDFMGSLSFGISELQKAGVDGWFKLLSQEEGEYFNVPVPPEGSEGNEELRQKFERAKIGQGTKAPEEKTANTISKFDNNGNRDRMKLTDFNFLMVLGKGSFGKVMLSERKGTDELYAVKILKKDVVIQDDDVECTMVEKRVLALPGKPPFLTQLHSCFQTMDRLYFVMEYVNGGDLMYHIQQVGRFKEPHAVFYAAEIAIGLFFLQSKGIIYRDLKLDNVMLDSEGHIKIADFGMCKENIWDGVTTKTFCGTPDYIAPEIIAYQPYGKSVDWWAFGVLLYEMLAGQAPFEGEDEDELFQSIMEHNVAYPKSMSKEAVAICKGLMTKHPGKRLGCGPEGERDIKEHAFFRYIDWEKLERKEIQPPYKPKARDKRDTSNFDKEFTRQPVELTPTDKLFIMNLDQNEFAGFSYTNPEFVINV", "experiment": "PKC overlay of immobilized peptides (slot-blot)", "type": "binding", "set-up": "All the solutions contained 5 nM rat brain PKC in peptide overlay buffer; from tissue; host or cells: rat brain", "conditions": "DG and calcium", "protocol": "The binding of βPKC to peptide I (SEQ ID NO:1), peptide rVI (SEQ ID NO:7) and control peptide (SEQ ID NO:9) was assessed using a PKC overlay assay similar to that described in Example 3. Increasing amounts of peptides (0.5 μmole, 1.0 μmole, 5.0 μmole and 10.0 μmole) suspended in 20 mM NaCl were applied individually onto nitrocellulose using a slot-blot apparatus (Schleicher and Schuell, Keene, N.H.). The nitrocellulose membrane was washed three times, minutes per wash, in peptide overlay buffer and incubated for two hours in peptide overlay block buffer. The membrane was cut into sections and the sections were transferred to different PKC-containing solutions and incubated for 30 minutes at room temperature. All the solutions contained 5 nM rat brain PKC in peptide overlay buffer. Some solutions additionally contained PS, DG, and calcium. The membranes were then washed three times, 15 minutes per wash, in peptide overlay buffer and incubated in peptide overlay block buffer containing anti-βPKC monoclonal antibodies (1:1000 dilution; Seikagaku Kogyo, Tokyo, Japan). […]\nBinding of PKC was determined using chemiluminescence as described in Example 3, part C. Quantitation of PKC binding was carried out using a \"MICRO SCAN\" 1000 gel analyzer (Galai Inc., Yokneam, Israel)."}, "[2]": {"test_system": "δ and εPKC isozymes", "experiment": "PKC isozyme translocation and degradation in cardiac myocytes", "type": "cell-based, rat", "conditions": "peptide introduced into cardiac myocytes", "text": "This peptide-induced translocation was followed by degradation of δ and εPKC isozymes."}, "[3]": {"test_system": "PKC-mediated germinal vesicle breakdown (GVBD) in Xenopus oocytes", "experiment": "PKC-mediated Xenopus oocyte maturation (germinal vesicle breakdown, GVBD) after peptide microinjection", "type": "cell-based", "protocol": "Exposure to insulin induces maturation in Xenopus oocytes via a PKC-dependent pathway (Smith, et al., 1992). The maturation response may be quantified by monitoring the appearance of a white spot in the animal hemisphere of the oocyte, indicating germinal vesicle breakdown (GVBD) and maturation. To assess the effects of RACK1 WD-40-derived peptides on insulin-induced PKC-mediated maturation, 50 nl of a 20 mM NaCl solution containing the indicated peptides [peptide I (SEQ ID NO:1; .circle-solid.), peptide rVI (SEQ ID NO:7; .box-solid.), or injection solution (.quadrature.)] […] One hour following the peptide injections, the oocytes were exposed to a solution containing insulin (8.25 μg/ml) for 2 minutes (t=0). 10-15 oocytes were used for each sample.\nThe data, representative of three independent experiments, are expressed as the percent of oocytes with GVBD following insulin exposure and are plotted as a function of time in FIG. 5."}, "[4]": {"test_system": "PKC", "experiment": "PKC autophosphorylation", "type": "biochemical, rat", "conditions": "10 μM peptide; no PS, DG, calcium", "protocol": "Rat brain PKC (~10 nM) was incubated with mild agitation in a final volume of 250 μl of overlay buffer, as in Example 1 either with anti-βPKC pseudosubstrate antibodies (1:10 dilution, Life Technologies, Gaithersburg, Md.) or with the indicated peptide (10 μM). Where indicated, PS (50 μg/ml), DG (0.8 μg/ml) and CaCl2 (1 mM) were also added. The amount of autophosphorylation was determined after 2 hours for the reaction with the anti-pseudosubstrate antibodies, or after 15 minutes for the other samples. 50 μl of a buffer comprised of 20 mM Tris-HCl (pH 7.5), 20 mM MgCl2, 20 μM ATP and 5 μci/ml [γ-^32 P]ATP. The mixture was incubated for 15 minutes at room temperature and the reaction was stopped by adding 60 μl sample buffer (see Example 9). The samples were then boiled for 10 minutes, loaded onto a 10% SDS-PAGE mini gel and electrophoresed. The gel was fixed with 50% methanol and 10% acetic acid for 1 hour, and the autophosphorylation of PKC was determined by autoradiography."}}, "data": [{"substance": "peptide I: 15-residue peptide homologous to a sequence in the sixth WD-40 repeat of RACK1; PKC antagonist (KGDYEKILVALCGGN)", "values": [{"measurement": "peptide amount at which activated PKC bound to immobilized peptide (as low as)", "setting": "[1]; PKC with PS, 5 nM rat brain PKC, 0.5-10.0 μmole peptide on nitrocellulose", "result": "≤ 5", "unit": "µmol"}, {"measurement": "binding of unactivated PKC to immobilized peptide", "setting": "[1]; PKC without PS", "result": "did not bind"}, {"measurement": "effect on NE-induced translocation of PKC isozymes", "setting": "[2]; norepinephrine 2 μM", "result": "inhibited"}, {"measurement": "degradation of δ and εPKC isozymes", "setting": "[2]", "result": "nor does it induce PKC degradation"}, {"measurement": "translocation / distribution of δ and εPKC isozymes in the absence of hormone stimulation", "setting": "[2]", "result": "does not affect PKC distribution"}, {"measurement": "plateau of % GVBD following insulin exposure", "setting": "[3]; 50 nl of 50 μM peptide microinjected, insulin 8.25 μg/ml", "result": "45-50 % GVBD"}, {"measurement": "dose dependence of effect on GVBD", "setting": "[3]; between 5 μm-500 μM", "result": "dose-dependent"}, {"measurement": "fraction of oocytes exposed to insulin that reach maturation", "setting": "[3]; peptide microinjected, insulin", "result": "45-50%"}, {"measurement": "induction of PKC autophosphorylation in the absence of PKC activators", "setting": "[4]", "result": "Neither peptide I nor control peptide induced PKC autophosphorylation"}]}]}
